In ChEMBL document CHEMBL1155874, “Carbonic anhydrase activators: Activation of the human cytosolic isozyme III and membrane-associated isoform IV with amino acids and amines” (Bioorg Med Chem Lett, 2008) one finds Ka and kcat data, which are given here for 18 compounds.

Data set [1] addresses Carbonic anhydrase 3 (Homo sapiens) (UniProt P07451). The experiment in a line: Activation of human recombinant CA3 at 10 uM by stopped-flow CO2 hydration method.
The target of data set [2] is Carbonic anhydrase 4 (Homo sapiens) (UniProt P22748). The experiment in a line: Activation of human recombinant truncated CA4 at 10 uM by stopped-flow CO2 hydration method.
Sequence of Carbonic anhydrase 4 (Homo sapiens) (P22748 whole entry, the tested form may be a part): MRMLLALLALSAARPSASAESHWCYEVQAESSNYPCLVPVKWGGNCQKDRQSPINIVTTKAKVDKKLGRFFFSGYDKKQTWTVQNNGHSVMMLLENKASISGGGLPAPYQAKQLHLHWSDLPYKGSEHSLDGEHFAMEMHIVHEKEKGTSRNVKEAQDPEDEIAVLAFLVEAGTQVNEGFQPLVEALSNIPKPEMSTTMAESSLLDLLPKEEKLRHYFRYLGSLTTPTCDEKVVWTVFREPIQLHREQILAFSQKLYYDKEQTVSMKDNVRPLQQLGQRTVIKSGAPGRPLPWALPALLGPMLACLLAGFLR
Data set [3] relates to N[C@H](Cc1c[nH]cn1)C(=O)O. The data set can be described thus: (§1) Activity of human recombinant CA1 at 10 uM by stopped-flow CO2 hydration method.
Data set [4] deals with N[C@@H](Cc1c[nH]cn1)C(=O)O. The data set is described as §1.
Data set [5] has as its system N[C@H](Cc1c[nH]cn1)C(=O)O. The data set can be described thus: (§2) Activity of human recombinant CA2 at 10 uM stopped-flow CO2 hydration method.
The subject of data set [6] is N[C@@H](Cc1c[nH]cn1)C(=O)O. Described as §2.
The target in data set [7] is Carbonic anhydrase 2 (Homo sapiens) (UniProt P00918). The data set can be described thus: Activation of human recombinant CA2 at 10 uM by stopped-flow CO2 hydration method.
In data set [8] the target is Carbonic anhydrase 1 (Homo sapiens) (UniProt P00915). The data set can be described thus: Activation of human recombinant CA1 at 10 uM by stopped-flow CO2 hydration method.
Sequence of Carbonic anhydrase 1 (Homo sapiens) (P00915 2-261 limits assumed): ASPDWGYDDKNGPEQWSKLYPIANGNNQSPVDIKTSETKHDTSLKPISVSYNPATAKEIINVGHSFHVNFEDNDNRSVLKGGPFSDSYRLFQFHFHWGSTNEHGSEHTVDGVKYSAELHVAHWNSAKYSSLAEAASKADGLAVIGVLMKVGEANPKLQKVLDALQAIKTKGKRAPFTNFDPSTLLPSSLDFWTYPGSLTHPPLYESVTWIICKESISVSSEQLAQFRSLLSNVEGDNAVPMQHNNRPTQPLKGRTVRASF

Sequence of Carbonic anhydrase 3 (Homo sapiens) (P07451 whole entry, the tested form may be a part): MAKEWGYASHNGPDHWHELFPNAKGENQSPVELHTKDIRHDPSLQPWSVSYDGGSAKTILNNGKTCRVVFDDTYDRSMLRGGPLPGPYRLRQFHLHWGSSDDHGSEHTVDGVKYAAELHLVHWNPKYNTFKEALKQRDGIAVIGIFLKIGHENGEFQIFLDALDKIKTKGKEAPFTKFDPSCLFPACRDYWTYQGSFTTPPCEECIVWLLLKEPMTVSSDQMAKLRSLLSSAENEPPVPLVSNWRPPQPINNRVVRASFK
Sequence of Carbonic anhydrase 1 (Homo sapiens), P00915 (P00915 whole entry): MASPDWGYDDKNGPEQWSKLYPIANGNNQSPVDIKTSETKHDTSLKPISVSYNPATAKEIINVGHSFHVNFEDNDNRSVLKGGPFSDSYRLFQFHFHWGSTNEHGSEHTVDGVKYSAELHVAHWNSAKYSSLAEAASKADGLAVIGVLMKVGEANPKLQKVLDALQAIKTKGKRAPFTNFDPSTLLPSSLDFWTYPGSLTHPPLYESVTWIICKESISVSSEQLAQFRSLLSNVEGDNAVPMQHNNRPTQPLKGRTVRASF

Turning to `N[C@H](Cc1ccc(O)c(O)c1)C(=O)O`, the Ka is 28.7 µM in data set [1] and 34.7 µM in data set [2].

`N[C@H](Cc1c[nH]cn1)C(=O)O`: the Ka turned out to be 1.12 µM in data set [1] and 12.3 µM in data set [2].

Take `NCCc1ccc(O)c(O)c1`: the figures for the Ka in data set [1] and in data set [2] were 33.2 µM and 30.9 µM, respectively.

Take `N[C@H](Cc1c[nH]c2ccccc12)C(=O)O`: the results for the Ka in data set [1] and in data set [2] were 19 µM and 39.6 µM, respectively.

With “Carbonic anhydrase 1 (Homo sapiens), P00915”, the kcat in data set [3] stood at 9.1 ×10⁵ /s; in data set [4], 13.4 ×10⁵ /s.

Take `NCCc1ccccn1`: the Ka in data set [1] is 1.1 µM; in data set [2], 7.13 µM.

As to `N[C@@H](Cc1c[nH]cn1)C(=O)O`, the results for the Ka in data set [1] and in data set [2] were 35.9 µM and 7.3 µM, respectively.

For the compound `N[C@@H](Cc1ccc(O)c(O)c1)C(=O)O`, the Ka in data set [1] stood at 13.5 µM; in data set [2], 15.3 µM.

On to `N[C@@H](Cc1c[nH]c2ccccc12)C(=O)O`, for which the Ka was determined as 20.5 µM in data set [1] and 37.1 µM in data set [2].

As for `NCCN1CCOCC1`, the Ka came to 0.091 µM in data set [1] and 1.3 µM in data set [2].

Consider `Nc1ccc(C[C@H](N)C(=O)O)cc1`, for which the Ka in data set [1] stood at 43.2 µM; in data set [2], 0.079 µM.

Turning to “Carbonic anhydrase 2 (Homo sapiens) (from UniProt P00918)”, the kcat is 2.7 ×10⁶ /s in data set [5] and 4.3 ×10⁶ /s in data set [6].

`NCCN1CCNCC1`: the Ka in data set [1] is 0.32 µM; in data set [2] it was 24.9 µM.

On to `CNCC(O)c1ccc(O)c(O)c1` (single isomer, unassigned), for which the Ka in data set [1] is 36.4 µM; in data set [7], 96 µM; in data set [2] it was 45 µM; in data set [8], 0.09 µM.

Regarding `NCCc1c[nH]cn1`, the values for the Ka in data set [1], in data set [2] and in data set [8] were 36.9 µM, 25.3 µM and 2.1 µM, respectively.

As for `NCc1ccccn1`, the Ka in data set [1] came to 1.03 µM; in data set [2], 5.19 µM.

`NCCc1c[nH]c2ccc(O)cc12`: the Ka in data set [1] amounted to 0.78 µM; in data set [2], 3.14 µM.

In the case of `N[C@@H](Cc1ccc(O)cc1)C(=O)O`, the Ka worked out at 34.1 µM in data set [1] and 25.1 µM in data set [2].
